Reference: patent US8058475B2, “Substituted cyclohexylmethyl compounds” (Gruenenthal GmbH, priority 2005, dated 2011)
pKi: −log10 of the molar value.

Target: human μ-opiate receptor (Homo sapiens, UniProt P35372)
Assay: Affinity for the human μ-opiate receptor ([3H]-naloxone displacement, SPA, CHO-K1 membrane preparation)
Format: binding
Details: for inhibition at 1 µM: read-out: μ-Opioid receptor, % inhibition [1 μM]; for pKi: read-out: μ-Opioid receptor, Ki

human μ-opiate receptor, sequence (P35372 whole entry): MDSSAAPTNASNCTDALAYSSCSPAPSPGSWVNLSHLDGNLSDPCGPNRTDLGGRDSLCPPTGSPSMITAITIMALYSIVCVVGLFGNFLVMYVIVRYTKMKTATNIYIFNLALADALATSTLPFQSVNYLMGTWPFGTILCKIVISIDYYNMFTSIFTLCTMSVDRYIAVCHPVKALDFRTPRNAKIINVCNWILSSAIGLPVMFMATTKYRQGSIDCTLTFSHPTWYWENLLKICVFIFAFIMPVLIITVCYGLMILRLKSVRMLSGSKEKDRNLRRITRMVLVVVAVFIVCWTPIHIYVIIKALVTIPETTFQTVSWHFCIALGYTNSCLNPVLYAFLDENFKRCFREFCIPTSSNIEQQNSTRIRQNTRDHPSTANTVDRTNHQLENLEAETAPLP

Row | Structure (SMILES) | inhibition at 1 µM | pKi | μ-Opioid receptor, % inhibition [1 μM] (1 µM)
1 | COc1cccc(C(=O)NCCC2CCC(C(c3ccc(F)cc3)N(C)C)CC2)c1 (stereo not drawn) [compound 447, N-(2-{4-[dimethylamino-(4-fluoro-phenyl)-methyl]-cyclohexyl}-ethyl)-3-methoxy-benzamide] | 83% | 6.89 | –
2 | Cc1ccccc1C(=O)NCC1CCC(C(c2ccccc2)N(C)C)CC1 (single isomer, unassigned) [compound 325, N-[4-(dimethylamino-phenyl-methyl)-cyclohexylmethyl]-2-methyl-benzamide] | – | 7.47 | 94%
3 | CN(C)C(c1ccccc1)C1CCC(CNC(=O)c2c(Cl)cc(Cl)cc2Cl)CC1 (stereo not drawn) [compound 338, 2,4,6-trichloro-N-[4-(dimethylamino-phenyl-methyl)-cyclohexylmethyl]-benzamide] | 91% | 7.55 | –
4 | CN(C)C(c1cccc(F)c1)C1CCC(NC(=O)c2ccc(-c3ccccn3)s2)CC1 (stereo not drawn) [compound 267, 5-pyridin-2-yl-thiophene-2-carboxylic acid {4-[dimethylamino-(3-fluoro-phenyl)-methyl]-cyclohexyl}-amide] | 77% | 6.82 | –
5 | CN(C)C(c1ccccc1)C1CCC(CCNC(=O)c2ccc3snnc3c2)CC1 (stereo not drawn) [compound 472, benzo[1,2,3]thiadiazole-5-carboxylic acid {2-[4-(dimethylamino-phenyl-methyl)-cyclohexyl]-ethyl}-amide] | 85% | – | –
6 | CN(C)C(c1cccs1)C1CCC(CCNC(=O)c2cccc(Cl)c2)CC1 (stereo not drawn) [compound 424, 3-chloro-N-{2-[4-(dimethylamino-thiophen-2-yl-methyl)-cyclohexyl]-ethyl}-benzamide] | 99% | 8.57 | –
7 | CN(C)C(c1ccc(Cl)cc1)C1CCC(CCNC(=O)c2cc(F)cc(F)c2)CC1 (stereo not drawn) [compound 434, N-(2-{4-[(4-chloro-phenyl)-dimethylamino-methyl]-cyclohexyl}-ethyl)-3,5-difluoro-benzamide] | 85% | 7.62 | –
8 | CN(C)C(c1cccs1)C1CCC(NC(=O)c2cncc(Br)c2)CC1 (stereo not drawn) [compound 225, 5-bromo-N-[4-(dimethylamino-thiophen-2-yl-methyl)-cyclohexyl]-nicotinamide] | 87% | 7.70 | –
9 | CN(C)C(c1cccc(F)c1)C1CCC(CNC(=O)c2csc3ccccc23)CC1 (stereo not drawn) [compound 314, benzo[b]thiophene-3-carboxylic acid {4-[dimethylamino-(3-fluoro-phenyl)-methyl]-cyclohexylmethyl}-amide] | 97% | 8.38 | –
10 | CN(C)C(c1cccc(F)c1)C1CCC(CCNC(=O)c2ccccc2F)CC1 (stereo not drawn) [compound 411, N-(2-{4-[dimethylamino-(3-fluoro-phenyl)-methyl]-cyclohexyl}-ethyl)-2-fluoro-benzamide] | 99% | 7.96 | –
11 | CN(C)C(c1cccs1)C1CCC(CCNC(=O)c2c(Cl)cccc2Cl)CC1 (stereo not drawn) [compound 431, 2,6-dichloro-N-{2-[4-(dimethylamino-thiophen-2-yl-methyl)-cyclohexyl]-ethyl}-benzamide] | 93% | 7.59 | –
12 | CN(C)C(c1cccc(F)c1)C1CCC(CNC(=O)CC(C)(C)C)CC1 (stereo not drawn) [compound 295, N-{4-[dimethylamino-(3-fluoro-phenyl)-methyl]-cyclohexylmethyl}-3,3-dimethyl-butyramide] | 101% | 8.14 | –
13 | Cc1oc(-c2ccccc2)cc1C(=O)NCCC1CCC(C(c2ccccc2)N(C)C)CC1 (stereo not drawn) [compound 467, 2-methyl-5-phenyl-furan-3-carboxylic acid {2-[4-(dimethylamino-phenyl-methyl)-cyclohexyl]-ethyl}-amide] | 82% | 7.21 | –
14 | CSc1ncccc1C(=O)NCC1CCC(C(c2ccccc2)N(C)C)CC1 (stereo not drawn) [compound 299, N-[4-(dimethylamino-phenyl-methyl)-cyclohexylmethyl]-2-methylsulfanyl-nicotinamide] | 100% | 9.00 | –
